Assay [1] addresses T1, human serotonin transporters (Homo sapiens, UniProt P31645).
T1 construct: expressed in transfected cells; host or cells: HEK-293 (HEK-hSERT), membrane homogenates
The assay is described as follows: Serotonin Transporter Binding Assay. The following applies: HEK-hSERT cell membranes, 1 nM [3H]-citalopram, Cheng and Prusoff. An outline of the steps: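 Membranes from HEK-293 cells stably expressing hSERT were incubated 1 hr at 25° C with 1 nM [^3H]-citalopram and test compound in 50 mM Tris pH 7.4, 120 mM NaCl, 5 mM KCl, then filtered. Non-specific binding was defined by 10 μM fluoxetine. IC50 came from displacement curves, and Ki by Cheng–Prusoff.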

Assay [2] deals with T2, recombinant human dopamine D2L receptors (Homo sapiens, UniProt P14416).
T2 construct: expressed in transfected cells; host or cells: HEK-293 (HEK-D2L), membrane homogenates
T2 sequence (P14416 whole entry): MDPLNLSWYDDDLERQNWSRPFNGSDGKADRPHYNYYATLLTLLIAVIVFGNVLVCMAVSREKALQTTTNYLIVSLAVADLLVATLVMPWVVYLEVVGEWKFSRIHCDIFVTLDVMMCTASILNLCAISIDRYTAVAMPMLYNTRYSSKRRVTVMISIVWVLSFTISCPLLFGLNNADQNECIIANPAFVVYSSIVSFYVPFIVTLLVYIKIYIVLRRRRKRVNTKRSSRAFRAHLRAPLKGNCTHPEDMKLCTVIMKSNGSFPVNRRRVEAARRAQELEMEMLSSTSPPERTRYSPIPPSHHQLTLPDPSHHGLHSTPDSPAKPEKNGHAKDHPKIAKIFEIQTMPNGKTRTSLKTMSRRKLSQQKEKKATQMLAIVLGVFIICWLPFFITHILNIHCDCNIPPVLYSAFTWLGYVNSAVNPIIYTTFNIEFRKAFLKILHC
Kind of assay: Dopamine Binding Assay. The settings on record: HEK-D2L cell membranes, 150 pM [3H]-spiperone, Cheng and Prusoff. An outline of the steps:
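Competition binding on HEK-293 membranes stably expressing human D2L (~5 μg protein) with 150 pM [3H]-spiperone, 1.5 h at 22 °C in 50 mM Tris pH 7.4, 1 mM EDTA, 6 mM MgCl2. Filtration read-out; non-specific binding defined with 2 μM (+)butaclamol, Ki by Cheng-Prusoff.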

Each structure is given as a SMILES string. Like-named read-outs stand apart in the source and are kept apart here.

T1 sequence (P31645 whole entry): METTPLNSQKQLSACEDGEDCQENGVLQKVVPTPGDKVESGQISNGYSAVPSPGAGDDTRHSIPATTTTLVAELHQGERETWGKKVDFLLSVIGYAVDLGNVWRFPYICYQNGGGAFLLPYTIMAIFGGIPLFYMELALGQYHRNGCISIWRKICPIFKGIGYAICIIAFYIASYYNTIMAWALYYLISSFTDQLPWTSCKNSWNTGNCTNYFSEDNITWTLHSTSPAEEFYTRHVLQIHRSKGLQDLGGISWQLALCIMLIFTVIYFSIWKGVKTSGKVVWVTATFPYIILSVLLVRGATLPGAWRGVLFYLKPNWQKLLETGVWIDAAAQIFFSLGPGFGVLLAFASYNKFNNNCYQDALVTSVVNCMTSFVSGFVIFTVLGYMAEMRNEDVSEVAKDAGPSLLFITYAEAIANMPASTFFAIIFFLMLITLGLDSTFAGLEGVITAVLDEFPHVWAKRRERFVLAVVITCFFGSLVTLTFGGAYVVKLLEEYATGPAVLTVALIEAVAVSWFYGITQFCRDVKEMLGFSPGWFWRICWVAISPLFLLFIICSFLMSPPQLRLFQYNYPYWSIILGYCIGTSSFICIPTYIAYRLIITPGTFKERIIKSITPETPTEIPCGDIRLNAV

As to `COc1ccc(CNC[C@@H]2C[C@H]2c2c[nH]c3ccc(C#N)cc23)cc1` (relative stereo) [Example 10, trans-2-[5-Cyanoindol-3-yl]-1-[N-(4-methoxybenzyl)amnomethyl]-cyclopropane], the values for the Ki in assay [1] (read-out: SERT Ki) and in assay [2] were 1 to 10 nM and 100 to 1000 nM, respectively.

In the case of `Fc1ccc2[nH]cc(C3CC3CNCCc3c[nH]cn3)c2c1` (stereo not drawn) [Example 64, trans-2-[5-Fluoroindol-3-yl]-1-[N-2-(4-imidazolyl)ethylaminomethyl]-cyclopropane], the Ki in assay [1] (read-out: SERT Ki) and in assay [2] was 10 to 100 nM in each case.

For the compound `Fc1ccc2[nH]cc(C3CC3CNCC3CC3)c2c1` (stereo not drawn) [Example 69, trans-1-[N-Cyclopropylmethylaminomethyl]-2-[5-fluoroindol-3-yl]-cyclopropane], the Ki in assay [1] (read-out: SERT Ki) fell in the range of 10 to 100 nM; in assay [2], 100 to 1000 nM.

In the case of `CN(C)CC1CC1c1c[nH]c2ccc(C#N)cc12` (single isomer, unassigned) [Example 117, Cis-2-[5-Cyanoindol-3-yl]-1-(N,N-dimethylaminomethyl)cyclopropane], the inhibition constant Ki is 1 to 10 nM in assay [1] (SERT Ki (nM)) and above 1000 nM in assay [2].

With `Fc1ccc2[nH]cc(C3CC3CNC34C[C@H]5C[C@@H](C3)C[C@@H](C4)C5)c2c1` (stereo partly shown) [Example 139], the Ki in assay [1] (read-out: SERT Ki) and in assay [2] was 10 to 100 nM in each case.

Turning to `CCN(CCNC(=O)OC(C)C)C[C@@H]1C[C@H]1c1c[nH]c2ccc(C#N)cc12` (relative stereo) [Example 96, trans-2-[5-Cyanoindol-3-yl]-1-[N,N-ethyl-2-amino(isopropylcarbamoyl)ethylaminomethyl]-cyclopropane], the Ki in assay [1] (read-out: SERT Ki) lay within 1 to 10 nM; in assay [2] it was 100 to 1000 nM.

As to `N#Cc1ccc2[nH]cc([C@@H]3C[C@H]3CNCc3ccccc3)c2c1` (relative stereo) [Example 7, trans-1-(N-Benzlyaminomethyl)-2-[5-cyanoindol-3-yl]-cyclopropane], the Ki in assay [1] (read-out: SERT Ki) lay in the range of 1 to 10 nM; in assay [2], 100 to 1000 nM.

As to `N#Cc1ccc2[nH]cc(C3CC3CNCc3ccncc3)c2c1` (stereo not drawn) [Example 16, trans-2-[5-Cyanoindol-3-yl]-1-[N-(4-pyridyl)methylaminomethyl]-cyclopropane], the inhibitory constant (Ki) was 10 to 100 nM in assay [1] (read-out: SERT Ki) and 100 to 1000 nM in assay [2].

As for `N#Cc1ccc2[nH]cc([C@@H]3C[C@H]3CNCc3ccccc3F)c2c1` (relative stereo) [Example 11, trans-2-[5-Cyanoindol-3-yl]-1-[N-(2-fluorobenzyl)aminomethyl]-cyclopropane], the Ki is 1 to 10 nM in assay [1] (read-out: SERT Ki) and 100 to 1000 nM in assay [2].

Turning to `CN(C)CC1CC1c1c[nH]c2ccc(F)cc12` (single isomer, unassigned) [Example 118, Cis-2-[5-Fluoroindol-3-yl]-1-(N,N-dimethylaminomethyl)cyclopropane], the inhibition constant (Ki) is 10 to 100 nM in assay [1] (SERT Ki (nM)) and above 1000 nM in assay [2].

With `Fc1ccc2[nH]cc(C3CC3CNCCCc3ccccc3)c2c1` (stereo not drawn) [Example 62, trans-2-[5-Fluoroindol-3-yl]-1-[N-3-phenylpropylaminomethyl]-cyclopropane], the Ki was in the range of 1 to 10 nM in assay [1] (read-out: SERT Ki) and 10 to 100 nM in assay [2].

In the case of `Fc1ccc2[nH]cc(C3CC3CNCc3ccccc3F)c2c1` (stereo not drawn) [Example 53, trans-1-[N-(2-Fluorobenzyl)aminomethyl]2-[5-fluoroindol-3-yl]-cyclopropane], the Ki fell in the range of 10 to 100 nM in assay [1] (read-out: SERT Ki) and 100 to 1000 nM in assay [2].

On to `Fc1ccc2[nH]cc([C@@H]3C[C@@H]3CN3CCCC3)c2c1` (relative stereo) [Example 185, cis-1-(1-pyrrolidino)-2-[5-fluoroindol-3-yl]-cyclopropane], for which the Ki was 10 to 100 nM in assay [1] (SERT Ki (nM)) and above 1000 nM in assay [2].

For `CC(C1CC1c1c[nH]c2ccc(C#N)cc12)N1CCCC1` (stereo not drawn) [Example 124, trans-3-[2-(1-Pyrrolidin-1-yl-ethyl)-cyclopropyl]-1H-indole-5-carbonitrile], the Ki in assay [1] (SERT Ki (nM)) was 1 to 10 nM; in assay [2] it was above 1000 nM.

For `CN(C)CC1CC1c1c[nH]c2cc(F)c(F)cc12` (stereo not shown) [Example 152, [2-(5,6-Difluoro-1H-indol-3-yl)-cyclopropylmethyl]-dimethyl-amine], the figures for the Ki in assay [1] (SERT Ki (nM)) and in assay [2] were 1 to 10 nM and above 1000 nM, respectively.

On to `CCNCCCC1CC1c1c[nH]c2ccc(C#N)cc12` (stereo not drawn) [Example 176, Trans-2-[5-cyanoindol-3-yl]-1-(3-(N-ethylamino)propyl)cyclopropane], for which the results for the Ki in assay [1] (read-out: SERT Ki) and in assay [2] were 10 to 100 nM and 100 to 1000 nM, respectively.

In the case of `Fc1ccc2[nH]cc(C3CC3CNCC3CCCCC3)c2c1` (stereo not drawn) [Example 71, trans-1-[N-Cyclohexylmethylaminomethyl]-2-[5-fluoroindol-3-yl]-cyclopropane], the Ki in assay [1] (read-out: SERT Ki) and in assay [2] was 10 to 100 nM throughout.

Turning to `N#Cc1ccc2[nH]cc(C3CC3CNCc3cccnc3)c2c1` (stereo not drawn) [Example 15, trans-2-[5-Cyanoindol-3-yl]-1-[N-(3-pyridyl)methylaminomethyl]-cyclopropane], the results for the Ki in assay [1] (read-out: SERT Ki) and in assay [2] were 10 to 100 nM and 100 to 1000 nM, respectively.

In the case of `Fc1cccc(CCNCC2CC2c2c[nH]c3ccc(F)cc23)c1` (stereo not drawn) [Example 60, trans-2-[5-Fluoroindol-3-yl]-1-[N-(3-fluorophenyl)ethylaminomethyl]-cyclopropane], the values for the inhibition constant (Ki) in assay [1] (read-out: SERT Ki) and in assay [2] were 10 to 100 nM and 100 to 1000 nM, respectively.

Consider `COc1cccc(CCNC[C@@H]2C[C@H]2c2c[nH]c3ccc(C#N)cc23)c1` (relative stereo) [Example 42], for which the figures for the Ki in assay [1] (read-out: SERT Ki) and in assay [2] were 1 to 10 nM and 10 to 100 nM, respectively.

`CCN(CCCNC(=O)OC)C[C@@H]1C[C@H]1c1c[nH]c2ccc(F)cc12` (relative stereo) [Example 112, trans-1-[N,N-Ethyl-2-amino(methylcarbamoyl)propylaminomethyl]-2-[5-fluoroindol-3-yl]-cyclopropane]: the Ki lay within 10 to 100 nM in assay [1] (read-out: SERT Ki) and 100 to 1000 nM in assay [2].

On to `Fc1ccc2[nH]cc(C3CC3CNCCCn3ccnc3)c2c1` (stereo not drawn) [Example 65, trans-2-[5-Fluoroindol-3-yl]-1-[N-3-(1-imidazolyl)propylaminomethyl]-cyclopropane], for which the Ki in assay [1] (read-out: SERT Ki) and in assay [2] was 10 to 100 nM each time.

On to `CCCNC[C@@H]1C[C@H]1c1c[nH]c2ccc(C#N)cc12` (relative stereo) [Example 45], for which the results for the Ki in assay [1] (read-out: SERT Ki) and in assay [2] were 10 to 100 nM and 100 to 1000 nM, respectively.

For the compound `N#Cc1ccc2[nH]cc(C3CC3CNCc3ccc(F)cc3)c2c1` (stereo not drawn) [Example 13, trans-2-[5-Cyanoindol-3-yl]-1-[N-(4-fluorobenzyl)aminomethyl]-cyclopropane], the Ki was 1 to 10 nM in assay [1] (read-out: SERT Ki) and 100 to 1000 nM in assay [2].

Regarding `Fc1ccc2[nH]cc([C@@H]3C[C@H]3CNCCOc3ccccc3)c2c1` (relative stereo) [Example 83], the Ki in assay [1] (read-out: SERT Ki) and in assay [2] was 1 to 10 nM each time.

For the compound `CNC[C@H]1C[C@@H]1c1c[nH]c2cc(C(F)(F)F)ccc12` (racemic) [Example 155, Methyl-[2-(6-trifluoromethyl-1H-indol-3-yl)-cyclopropylmethyl]-amine], the Ki was 10 to 100 nM in assay [1] (SERT Ki (nM)) and above 1000 nM in assay [2].

For the compound `N#Cc1ccc2[nH]cc(C3CC3CN3CCCCC3)c2c1` (stereo not drawn) [Example 47, trans-2-[5-Cyanoindol-3-yl]-1-[piperidin-1-yl-methyl]-cyclopropane], the Ki in assay [1] (read-out: SERT Ki) lay in the range of 10 to 100 nM; in assay [2], 100 to 1000 nM.

Consider `Fc1ccc2[nH]cc(C3CC3CNCc3ccncc3)c2c1` (stereo not drawn) [Example 58, trans-2-[5-Fluoroindol-3-yl]-1-[N-(4-pyridylmethyl)aminomethyl]-cyclopropane], for which the Ki in assay [1] (read-out: SERT Ki) and in assay [2] was 10 to 100 nM in each case.

On to `N#Cc1ccc2[nH]cc([C@@H]3C[C@H]3CCCN3CCCC3)c2c1` (relative stereo) [Example 179, Trans-2-[5-cyanoindol-3-yl]-1-(3-(1-pyrrolidino)propyl)cyclopropane], for which the results for the Ki in assay [1] (read-out: SERT Ki) and in assay [2] were 10 to 100 nM and 100 to 1000 nM, respectively.

Turning to `Fc1ccc2[nH]cc(C3CC3CNCc3cccnc3)c2c1` (stereo not drawn) [Example 57, trans-2-[5-Fluoroindol-3-yl]-1-[N-(3-pyridylmethyl)aminomethyl]-cyclopropane], the inhibitory constant (Ki) in assay [1] (read-out: SERT Ki) and in assay [2] was 10 to 100 nM in each case.

Turning to `CN(C)C[C@@H]1C[C@H]1Cc1c[nH]c2ccc(F)cc12` (single isomer, unassigned) [Example 149, (−)-[2-(5-Fluoro-1H-indol-3-ylmethyl)-cyclopropylmethyl]-dimethylamine], the figures for the Ki in assay [1] (read-out: SERT Ki) and in assay [2] were 1 to 10 nM and 100 to 1000 nM, respectively.

In the case of `CC1CCN(CC2CC2c2c[nH]c3ccc(F)cc23)CC1` (stereo not shown) [Example 140], the Ki in assay [1] (read-out: SERT Ki) and in assay [2] was 100 to 1000 nM throughout.

Turning to `N#Cc1ccc2[nH]cc(C3CC3CNCCCn3ccnc3)c2c1` (stereo not drawn) [Example 24, trans-2-[5-Cyanoindol-3-yl]-1-[N-3-(1-imidazolyl)propylaminomethyl]-cyclopropane], the Ki in assay [1] (read-out: SERT Ki) was 10 to 100 nM; in assay [2] it was 100 to 1000 nM.

In the case of `Fc1ccc2[nH]cc(C3CC3CN3CCC(Cc4ccccc4)CC3)c2c1` (stereo not drawn) [Example 73, trans-1-(4-Benzyl-piperidin-1-yl-methyl)-2-[5-fluoroindol-3-yl]-cyclopropane], the Ki is 1 to 10 nM in assay [1] (read-out: SERT Ki) and 10 to 100 nM in assay [2].

In the case of `CN(Cc1ccccc1)C[C@@H]1C[C@H]1c1c[nH]c2ccc(C#N)cc12` (relative stereo) [Example 3, Trans-2-[5-Cyanoindol-3-yl]-1-[N,N-methyl-benzylaminomethyl]-cyclopropane], the figures for the inhibition constant (Ki) in assay [1] (read-out: SERT Ki) and in assay [2] were below 1 nM and 100 to 1000 nM, respectively.

One may read the Ki as a dissociation constant, usually derived from enzyme kinetics or from competition with a known ligand.
